Values after ≈ are worked out from the molar mass of the structure shown.
Legend:
Test in all cases: Broth microdilution MIC, clinical isolate panel
Format in all cases: cell-based
[1] = test system: Pseudomonas aeruginosa isolates (n = 109); details: Pseudomonas aeruginosa
Description: (§1) Comparator antibiotics were supplied by Micromyx, and stock solutions were prepared on the first day of testing using solvents recommended by CLSI (1). Stock solutions of all compounds were made at 40× the final testing concentration and stored at −80° C. prior to testing. Information regarding compound source, catalog and lot number, testing concentrations and drug diluent for the comparators and test agent are detailed below in Table 3.
(§2) The test organisms evaluated in this study consisted of clinical isolates from the Micromyx Repository and reference isolates from the American Type Culture Collection (ATCC; Manassas, Va.). The clinical isolates were obtained from USA hospitals. Upon initial receipt at Micromyx, the organisms were sub-cultured onto an appropriate agar medium. Following incubation, colonies were harvested from these plates and cell suspensions prepared and frozen at −80° C. with a cryoprotectant. Prior to testing, the isolates were streaked from frozen vials onto Trypticase Soy Agar with 5% sheep blood (Becton Dickenson [BD]; Sparks, Md.; Lot Nos. 7173618, 7166759, 7208688, 72144895, 7228505 and Remel Lenexa, Kans. Lot No. 212574). Plates were incubated at 35° C. overnight.
(§3) Mueller Hinton II broth (MHB II; BD; Lot Nos. 6258541 and 7143896) was used for MIC testing of aerobic organisms.
(§4) MIC values were determined using a broth microdilution procedure described by CLSI (1, 3). Automated liquid handlers (Multidrop 384, Labsystems, Helsinki, Finland; Biomek 2000 and Biomek FX, Beckman Coulter, Fullerton Calif.) were used to conduct serial dilutions and liquid transfers.
(§5) To prepare the drug mother plates, which would provide the serial drug dilutions for the replicate daughter plates, the wells of columns 2-12 of standard 96-well microdilution plates (Costar 3795) were filled with 150 μl of the designated diluent for each row of drug. The test articles and comparator compounds (300 μl at 40× the highest concentration to be tested) were dispensed into the appropriate wells in column 1. The Biomek 2000 was then used to make 2-fold serial dilutions in the mother plates from column 1 through column 11. The wells of Column 12 contained no drug and served as the organism growth control wells for the assay.
(§6) The daughter plates were loaded with 185 μL per well of MHB II using the Multidrop 384. The daughter plates were completed on the Biomek FX instrument which transferred 5 µL of drug solution from each well of a mother plate to the corresponding well of each daughter plate in a single step. A standardized inoculum of each test organism was prepared per CLSI methods (1). The inoculum for each organism was dispensed into sterile reservoirs divided by length (Beckman Coulter), and the Biomek 2000 was used to inoculate the plates. Daughter plates were placed on the Biomek 2000 work surface in reverse orientation so that inoculation took place from low to high drug concentration.
(§7) Plates were stacked 3-4 high, covered with a lid on the top plate, placed in plastic bags, and incubated at 35° C. for 16 to 20 hrs. Following incubation, the microplates were removed from the incubator and viewed from the bottom using a plate viewer. […] The MIC was read and recorded as the lowest concentration of drug that inhibited visible growth of the organism.
(§8) Clinical breakpoints to determine percent resistance within a given organism group were obtained from CLSI (3), with the exception of colistin for K. pneumoniae, Enterobacter spp., and E. coli, which are only available from EUCAST.

[2] = test system: Escherichia coli isolates (n = 101); details: Escherichia coli (n = 101)
Description: as §1, §2, §3, §4, §5, §6, §7, §8

[3] = test system: Acinetobacter spp. isolates (n = 104); details: Acinetobacter spp. (n = 104)
Description: as §1, §2, §3, §4, §5, §6, §7, §8

[4] = test system: Klebsiella pneumoniae isolates (n = 101); details: Klebsiella pneumoniae (n = 101)
Description: as §1, §2, §3, §4, §5, §6, §7, §8

[5] = test system: Staphylococcus aureus isolates (n = 104); details: Staphylococcus aureus (n = 104), all methicillin-resistant
Description: as §1, §2, §3, §4, §5, §6, §7, §8

[6] = test system: Enterococcus faecium isolates (n = 104); details: Enterococcus faecium (n = 104)
Description: as §1, §2, §3, §4, §5, §6, §7, §8

Row | MIC90 [5] | MIC range [5] | MIC ([5]; read-out: Mode (MIC)) | MIC50 [6] | MIC90 [6] | MIC ([6]; read-out: Mode (MIC)) | Structure (SMILES) | MIC50 [1] | MIC ([1]; read-out: Mode (MIC)) | MIC50 [2] | MIC ([2]; read-out: Mode (MIC)) | MIC50 [3] | % R (percent of isolates resistant, clinical breakpoints) [4] | MIC50 [4] | MIC50 [5]
1 | – | – | – | – | – | – | CC(C)(O/N=C(\C(=O)N[C@@H]1C(=O)N2C(C(=O)[O-])=C(C[n+]3ccccc3)CS[C@H]12)c1csc(N)n1)C(=O)O [Ceftazidime] | 4 µg/mL (≈ 7.32 µM) | 2 µg/mL (≈ 3.66 µM) | 0.5 µg/mL (≈ 0.915 µM) | 0.25 µg/mL (≈ 0.457 µM) | > 32 µg/mL | Over 80% | > 32 µg/mL | –
2 | – | – | – | – | – | – | CCC[C@@H]1C[C@@H](C(=O)N[C@@H]([C@H]2O[C@H](SC)[C@H](O)[C@@H](O)[C@H]2O)[C@H](C)Cl)N(C)C1 [Clindamycin] | – | – | – | – | – | – | – | 0.12 µg/mL (≈ 0.282 µM)
3 | 1 µg/mL (≈ 0.617 µM) | 0.25 to 4 µg/mL | 0.5 µg/mL (≈ 0.309 µM) | 4 µg/mL (≈ 2.47 µM) | 8 µg/mL (≈ 4.94 µM) | 2 µg/mL (≈ 1.23 µM) | CCCCCCCCCC(=O)N[C@@H](Cc1c[nH]c2ccccc12)C(=O)N[C@H](CC(N)=O)C(=O)N[C@@H](CC(=O)O)C(=O)N[C@@H]1C(=O)NCC(=O)N[C@@H](CCCN)C(=O)N[C@@H](CC(=O)O)C(=O)N[C@H](C)C(=O)N[C@@H](CC(=O)O)C(=O)NCC(=O)N[C@H](CO)C(=O)N[C@@H]([C@H](C)CC(=O)O)C(=O)N[C@@H](CC(=O)c2ccccc2N)C(=O)O[C@@H]1C [Daptomycin] | – | – | – | – | – | – | – | 0.5 µg/mL (≈ 0.309 µM)

Reference: US20200071361A1, “ENGINEERED ANTIMICROBIAL AMPHIPHILIC PEPTIDES AND METHODS OF USE” (priority 2017, published 2020)
